Data on four compounds can be found in the NIST ThermoML archive (doi:10.1021/acs.jced.6b00895).

Numbers after ± are expanded uncertainties.

The conditions of this data set: Liquid, Ebulliometric method (Recirculating still).

For orientation: vapor or sublimation pressure means the pressure of vapour in equilibrium with the condensed phase. For `COCCO` [2-methoxyethan-1-ol], the “vapor or sublimation pressure” value (397.67 K) is 101.3 ± 1.5 kPa.
Consider `COC(C)CO` (centres undefined) [2-methoxy-1-propanol], for which, where the note is “402.65 K”, the “vapor or sublimation pressure” value turned out to be 101.3 ± 1.5 kPa.
Consider `COCC(C)O` (centres undefined) [1-methoxy-2-propanol], for which, under “393.15 K”, the “vapor or sublimation pressure” value is listed as 101.3 ± 1.5 kPa.
Turning to `O` [water], under “373.19 K”, the “vapor or sublimation pressure” value is listed as 101.3 ± 1.5 kPa.
